Measurements from US11708348B2, “Protease inhibitors for treatment of coronavirus infections” (The Scripps Research Institute, priority 2021, dated 2023).
Like-named read-outs stand apart in the source and are kept apart here.

Tested on: SARS-CoV-2 strain USA-WA1/2020
Assay: microbe, parasite or virus in culture
Format: cell-based
Settings: Severe acute respiratory syndrome coronavirus 2, HeLa-ACE2, 24 h, read-out: EC50, uM (Hela)
[1] = HeLa-ACE2 cells, SARS-CoV-2 infection, 24 h

| Compound | EC50 [1] | further results |
| --- | --- | --- |
| O=C1NCC[C@H]1C[C@H](NC(=O)[C@@H]1CC2(CC2)CN1C(=O)C12CC(F)(C1)C2)C(=O)COC(F)(F)F [Compound 627, (S)-5-(3-fluorobicyclo[1.1.1]pentane-1-carbonyl)-N-((S)-3-oxo-1-((S)-2-oxopyrrolidin-3-yl)-4-(trifluoromethoxy)butan-2-yl)-5-azaspiro[2.4]heptane-6-carboxamide] | 0.05 to 0.2 µM | – |
| C[C@H](C(=O)N1CC2(CC2)C[C@H]1C(=O)N[C@@H](C[C@@H]1CCNC1=O)C(=O)COC(F)(F)F)c1ccccc1 [Compound 628, (S)-N-((S)-3-oxo-1-((S)-2-oxopyrrolidin-3-yl)-4-(trifluoromethoxy)butan-2-yl)-5-((S)-2-phenylpropanoyl)-5-azaspiro[2.4]heptane-6-carboxamide] | 0.05 to 0.2 µM | – |
| C[C@H](C(=O)N1C[C@H]2[C@@H]([C@H]1C(=O)N[C@@H](C[C@@H]1CCNC1=O)C(=O)COC(F)(F)F)C2(C)C)c1ccccc1 [Compound 629, (1R,2S,5S)-6,6-dimethyl-N-((S)-3-oxo-1-((S)-2-oxopyrrolidin-3-yl)-4-(trifluoromethoxy)butan-2-yl)-3-((S)-2-phenylpropanoyl)-3-azabicyclo[3.1.0]hexane-2-carboxamide] | < 0.05 µM | – |
| CC1(C)[C@@H]2[C@@H](C(=O)N[C@@H](C[C@@H]3CCNC3=O)C(=O)COC(F)(F)F)N(C(=O)C3(O)CCC(F)(F)CC3)C[C@@H]21 [Compound 630, (1R,2S,5S)-3-(4,4-difluoro-1-hydroxycyclohexane-1-carbonyl)-6,6-dimethyl-N-((S)-3-oxo-1-((S)-2-oxopyrrolidin-3-yl)-4-(trifluoromethoxy)butan-2-yl)-3-azabicyclo[3.1.0]hexane-2-carboxamide] | 0.05 to 0.2 µM | – |
| CC(C)C[C@@H](OC(=O)C(C)C)C(=O)N1CC2(CC2)C[C@H]1C(=O)N[C@@H](C[C@@H]1CCNC1=O)C(=O)COC(F)(F)F [Compound 631, (R)-4-methyl-1-oxo-1-((S)-6-(((S)-3-oxo-l-((S)-2-oxopyrrolidin-3-yl)-4-(trifluoromethoxy)butan-2-yl)carbamoyl)-5-azaspiro[2.4]heptan-5-yl)pentan-2-yl isobutyrate] | 0.2 to 0.5 µM | – |
| CC(C)C[C@@H](OC(=O)Cc1ccccc1)C(=O)N1CC2(CC2)C[C@H]1C(=O)N[C@@H](C[C@@H]1CCNC1=O)C(=O)COC(F)(F)F [Compound 632, (R)-4-methyl-1-oxo-1-((S)-6-(((S)-3-oxo-l-((S)-2-oxopyrrolidin-3-yl)-4-(trifluoromethoxy)butan-2-yl)carbamoyl)-5-azaspiro[2.4]heptan-5-yl)pentan-2-yl 2-phenylacetate] | – | EC50: < 0.05 µM |
| CC1(C)CCC(O)(C(=O)N2CC3(CC3)C[C@H]2C(=O)N[C@@H](C[C@@H]2CCNC2=O)C(=O)COC(F)(F)F)CC1 [Compound 633, (S)-5-(l-hydroxy-4,4-dimethylcyclohexane-1-carbonyl)-N-((S)-3-oxo-1-((S)-2-oxopyrrolidin-3-yl)-4-(trifluoromethoxy)butan-2-yl)-5-azaspiro[2.4]heptane-6-carboxamide] | < 0.05 µM | – |
| CC(C)(C)[C@H](NC(=O)NC1CC1)C(=O)N1C[C@H]2[C@@H]([C@H]1C(=O)N[C@@H](C[C@@H]1CCNC1=O)C(=O)COC(F)(F)F)C2(C)C [Compound 634, (1R,2S,5S)-3-((S)-2-(3-cyclopropylureido)-3,3-dimethylbutanoyl)-6,6-dimethyl-N-((S)-3-oxo-1-((S)-2-oxopyrrolidin-3-yl)-4-(trifluoromethoxy)butan-2-yl)-3-azabicyclo[3.1.0]hexane-2-carboxamide] | – | EC50 (HeLa-ACE2 cells, SARS-CoV-2 infection, 24 h, given as a bound, not a class symbol): > 1 µM |
| O=C1NCC[C@H]1C[C@H](NC(=O)[C@@H]1CC2(CC2)CN1C(=O)C(F)F)C(=O)COC(F)(F)F [Compound 635, (S)-5-(2,2-difluoroacetyl)-N-((S)-3-oxo-1-((S)-2-oxopyrrolidin-3-yl)-4-(trifluoromethoxy)butan-2-yl)-5-azaspiro[2.4]heptane-6-carboxamide] | – | EC50: 0.05 to 0.2 µM |
| CC(C)C[C@@H](O)C(=O)N1CCCC[C@H]1C(=O)N[C@@H](C[C@@H]1CCNC1=O)C(=O)COC(F)(F)F [Compound 636, (S)-1-((R)-2-hydroxy-4-methylpentanoyl)-N-((S)-3-oxo-1-((S)-2-oxopyrrolidin-3-yl)-4-(trifluoromethoxy)butan-2-yl)piperidine-2-carboxamide] | 0.05 to 0.2 µM | – |
| CC(C)C[C@@H](O)C(=O)N1CC[C@@H](C(C)(C)C)C[C@H]1C(=O)N[C@@H](C[C@@H]1CCNC1=O)C(=O)COC(F)(F)F [Compound 637, (2S,4R)-4-(tert-butyl)-1-((R)-2-hydroxy-4-methylpentanoyl)-N-((S)-3-oxo-1-((S)-2-oxopyrrolidin-3-yl)-4-(trifluoromethoxy)butan-2-yl)piperidine-2-carboxamide] | < 0.05 µM | – |
| CC(C)C[C@@H](O)C(=O)N1C[C@H]2CC[C@H](C2)[C@H]1C(=O)N[C@@H](C[C@@H]1CCNC1=O)C(=O)COC(F)(F)F [Compound 638, (1R,2S,5S)-3-((R)-2-hydroxy-4-methylpentanoyl)-N-((S)-3-oxo-1-((S)-2-oxopyrrolidin-3-yl)-4-(trifluoromethoxy)butan-2-yl)-3-azabicyclo[3.2.1]octane-2-carboxamide] | 0.05 to 0.2 µM | – |
| CC(C)C[C@@H](O)C(=O)N1CCCCC[C@H]1C(=O)N[C@@H](C[C@@H]1CCNC1=O)C(=O)COC(F)(F)F [Compound 639, (S)-1-((R)-2-hydroxy-4-methylpentanoyl)-N-((S)-3-oxo-1-((S)-2-oxopyrrolidin-3-yl)-4-(trifluoromethoxy)butan-2-yl)azepane-2-carboxamide] | < 0.05 µM | – |
| CC(C)C[C@@H](O)C(=O)N1CCC2(CC2)C[C@H]1C(=O)N[C@@H](C[C@@H]1CCNC1=O)C(=O)COC(F)(F)F [Compound 640, (S)-6-((R)-2-hydroxy-4-methylpentanoyl)-N-((S)-3-oxo-1-((S)-2-oxopyrrolidin-3-yl)-4-(trifluoromethoxy)butan-2-yl)-6-azaspiro[2.5]octane-5-carboxamide] | 0.05 to 0.2 µM | – |
| CC(C)C[C@@H](O)C(=O)N1CCC(C)(C)C[C@H]1C(=O)N[C@@H](C[C@@H]1CCNC1=O)C(=O)COC(F)(F)F [Compound 641, (S)-1-((R)-2-hydroxy-4-methylpentanoyl)-4,4-dimethyl-N-((S)-3-oxo-1-((S)-2-oxopyrrolidin-3-yl)-4-(trifluoromethoxy)butan-2-yl)piperidine-2-carboxamide] | < 0.05 µM | – |
| CC(C)C[C@@H](O)C(=O)N1C2CCC(CC2)[C@H]1C(=O)N[C@@H](C[C@@H]1CCNC1=O)C(=O)COC(F)(F)F [Compound 642, (S)-2-((R)-2-hydroxy-4-methylpentanoyl)-N-((S)-3-oxo-1-((S)-2-oxopyrrolidin-3-yl)-4-(trifluoromethoxy)butan-2-yl)-2-azabicyclo[2.2.2]octane-3-carboxamide] | < 0.05 µM | – |
| CC(C)C[C@@H](NC(=O)OC(C)(C)C)C(=O)N1CC2(CC2)C[C@H]1C(=O)N[C@@H](C[C@@H]1CCNC1=O)C(=O)COC(F)(F)F [Compound 643, tert-butyl ((R)-4-methyl-1-oxo-1-((S)-6-(((S)-3-oxo-1-((S)-2-oxopyrrolidin-3-yl)-4-(trifluoromethoxy)butan-2-yl)carbamoyl)-5-azaspiro[2.4]heptan-5-yl)pentan-2-yl)carbamate] | < 0.05 µM | – |
| CC(C)C[C@@H](N)C(=O)N1CC2(CC2)C[C@H]1C(=O)N[C@@H](C[C@@H]1CCNC1=O)C(=O)COC(F)(F)F [Compound 644, (S)-5-(D-leucyl)-N-((S)-3-oxo-1-((S)-2-oxopyrrolidin-3-yl)-4-(trifluoromethoxy)butan-2-yl)-5-azaspiro[2.4]heptane-6-carboxamide] | 0.2 to 0.5 µM | – |
| CC(C)C[C@H](C(=O)N1CC2(CC2)C[C@H]1C(=O)N[C@@H](C[C@@H]1CCNC1=O)C(=O)COC(F)(F)F)N(C)C(=O)OC(C)(C)C [Compound 645, tert-butyl methyl((R)-4-methyl-1-oxo-1-((S)-6-(((S)-3-oxo-1-((S)-2-oxopyrrolidin-3-yl)-4-(trifluoromethoxy)butan-2-yl)carbamoyl)-5-azaspiro[2.4]heptan-5-yl)pentan-2-yl)carbamate] | 0.05 to 0.2 µM | – |
| COC1(C(=O)N2CC3(CC3)C[C@H]2C(=O)N[C@@H](C[C@@H]2CCNC2=O)C(=O)COC(F)(F)F)CCC(F)(F)CC1 [Compound 646, (S)-5-(4,4-difluoro-1-methoxycyclohexane-1-carbonyl)-N-((S)-3-oxo-1-((S)-2-oxopyrrolidin-3-yl)-4-(trifluoromethoxy)butan-2-yl)-5-azaspiro[2.4]heptane-6-carboxamide] | < 0.05 µM | – |
| CC(C)OCC(=O)N1CC2(CC2)C[C@H]1C(=O)N[C@@H](C[C@@H]1CCNC1=O)C(=O)COC(F)(F)F [Compound 647, (888S)-5-(2-isopropoxyacetyl)-N-((S)-3-oxo-1-((S)-2-oxopyrrolidin-3-yl)-4-(trifluoromethoxy)butan-2-yl)-5-azaspiro[2.4]heptane-6-carboxamide] | 0.05 to 0.2 µM | – |
| O=C1NCC[C@H]1C[C@H](NC(=O)[C@@H]1CC2(CC2)CN1C(=O)Cc1ccccc1)C(=O)COC(F)(F)F [Compound 648, (S)-N-((S)-3-oxo-1-((S)-2-oxopyrrolidin-3-yl)-4-(trifluoromethoxy)butan-2-yl)-5-(2-phenylacetyl)-5-azaspiro[2.4]heptane-6-carboxamide] | < 0.05 µM | – |
| O=C1NCC[C@H]1C[C@H](NC(=O)[C@@H]1CC2(CC2)CN1C(=O)C1(O)CCC(C(F)(F)F)CC1)C(=O)COC(F)(F)F (stereo partly drawn) [Compound 649, (S)-5-(l-hydroxy-4-(trifluoromethyl)cyclohexane-1-carbonyl)-N-((S)-3-oxo-1-((S)-2-oxopyrrolidin-3-yl)-4-(trifluoromethoxy)butan-2-yl)-5-azaspiro[2.4]heptane-6-carboxamide] | 0.05 to 0.2 µM | – |
| CC(C)C[C@H](NC(=O)C(=O)Nc1ccccc1F)C(=O)N[C@@H](C[C@@H]1CCNC1=O)C(=O)COP(C)(=O)c1ccccc1 (stereo partly drawn) [Compound 651, (S)-3-((S)-2-(2-((2-fluorophenyl)amino)-2-oxoacetamido)-4-methylpentanamido)-2-oxo-4-((S)-2-oxopyrrolidin-3-yl)butyl methyl(phenyl)phosphinate] | – | EC50: 0.05 to 0.2 µM |
